Laboratory results taken from US6613322B2, “Method for treating a subject suffering from conditions associated with an extracellular zinc sphingomyelinase” (The Trustees of Columbia University in the City of New York, priority 1997, dated 2003).

Assays:
S-SMase = target: T1, S-SMase (Homo sapiens, UniProt P17405); assay: SMase assay of endothelial cell (HUVEC) conditioned medium; format: biochemical; parameters: endogenous in cells; host or cells: primary HUVEC, 24-h serum-free conditioned medium
T1 sequence (P17405 47-631): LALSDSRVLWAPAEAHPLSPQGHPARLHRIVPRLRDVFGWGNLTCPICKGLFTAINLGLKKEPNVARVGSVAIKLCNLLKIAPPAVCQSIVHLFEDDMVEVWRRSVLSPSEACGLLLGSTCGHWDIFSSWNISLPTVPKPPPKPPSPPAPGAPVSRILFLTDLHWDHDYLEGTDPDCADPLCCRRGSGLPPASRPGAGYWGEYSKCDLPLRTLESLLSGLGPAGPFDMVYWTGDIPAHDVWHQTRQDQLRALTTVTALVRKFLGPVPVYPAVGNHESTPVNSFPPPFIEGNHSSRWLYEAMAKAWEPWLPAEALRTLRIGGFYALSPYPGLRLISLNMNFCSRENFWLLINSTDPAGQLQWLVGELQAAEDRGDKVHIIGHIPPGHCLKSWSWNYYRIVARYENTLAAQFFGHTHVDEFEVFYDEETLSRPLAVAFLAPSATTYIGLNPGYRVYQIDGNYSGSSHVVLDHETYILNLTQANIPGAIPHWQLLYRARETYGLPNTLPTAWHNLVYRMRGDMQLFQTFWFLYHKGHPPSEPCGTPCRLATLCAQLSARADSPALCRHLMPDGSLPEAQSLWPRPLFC
Description: FIGS. 20A-B. Cultured human endothelial cells secrete abundant amounts of S-SMase.
Smase Assay—As previously described (15), the standard 200-μl assay mixture consisted of up to 40 μl of sample (conditioned media or homogenized cells; see above, and a volume of assay buffer (0.1 M sodium acetate, pH 5.0) to bring the volume to 160 μl. The reaction was initiated by the addition of 40 μl substrate (50 pmol [^3H]sphingomyelin) in 0.25 M sucrose containing 3% Triton X-100 (final concentration of Triton X-100 in the 200-μl assay mix=0.6%). When added, the final concentrations of EDTA and Zn^2+ were 5 mM and 0.1 mM, respectively, unless indicated otherwise. The assay mixtures were incubated at 37° C. for no longer than 3 h and then extracted by the method of Bligh and Dyer (37); the lower, organic phase was harvested, evaporated under N2, and fractionated by TLC using chloroform:methanol (95:5). The ceramide spots were scraped and directly counted to quantify [^3H]ceramide. Typically, our assay reactions contained approximately 20 μg of cellular homogenate protein and a volume of conditioned media derived from a quantity of cells equivalent to approximately 50 μg of cellular protein.

L-SMase of HUVECs = assay: Cytokine regulation of L-SMase activity in HUVEC cell homogenates; format: cell-based, human; conditions: cytokine-treated endothelial cells
Description: FIGS. 23A-B. Cytokine regulation of S- and L-SMase of HUVECs. […] Conditioned media (FIG. 23A) and cell homogenates (FIG. 23B) from these cells were then assayed for SMase activity in the presence or absence of 0.1 mM ZnCl2, respectively.
Cells—Primary cultures of HUVEC were obtained from fresh umbilical cords and maintained in cell culture as previously described (31). Human coronary artery endothelial cells from a donor were purchased from Clonetics Corp. (San Diego, Calif.; cat. # CC-2585, Strain #3033). The cells were grown in endothelial basal media (EBM) (Clonetics) supplemented with 10% HI-FES; 10 μg endothelial cell growth supplement/ml (Sigma; cat. # E0760) and 50 μg gentamicin/ml. Primary cultures of bovine aortic endothelial, cells were established and subcultured as described previously (32). […]

stimulation of SMase secreted by endothelial cells by exogenous Zn2+ (S-SMase)	increase of enzymatic activity of S-SMase by Zn2+ (S-SMase; S-SMase from IL-1β-treated HUVECs) [fold]	increase of enzymatic activity of S-SMase by Zn2+ (S-SMase; S-SMase from untreated HUVECs) [fold]	Compound	L-SMase (lysosomal SMase) activity (L-SMase of HUVECs)
two-fold	1.77±0.03	1.78±0.17	[Cl-].[Cl-].[Zn+2] [Zn^2+, ZnCl2]	–
–	–	–	IL-1β: human recombinant interleukin-1β	decreased
